Legend:
[1] = Phase I clinical study pharmacokinetics, pulse i.v. infusion in healthy male subjects; assay type: in vivo, human; details: for mean AUC 4 hours: 6 pulses of 0.6 mg/kg in a 24-hour period
Text: The pharmacokinetics of 2-IB have been investigated in a Phase I clinical study in which the safety and tolerability of single and multiple doses of 2-IB pulse i.v. infusion in healthy male subjects were investigated. The study was a randomized, double-blind, placebo-controlled, dose escalation study with 3 groups of 6 healthy male subjects receiving a single i.v. infusion or pulsed i.v. infusions of 2-IB or placebo in 3 periods. Treatments were randomized such that each subject received 2 out of 3 foreseen dose levels of 2-IB and once placebo.

[2] = system: cell stress associated proteins; experiment: Cell stress proteome profiler array; assay type: cell-based, human; details: for ADAMTS1 mean densitometric intensity / Bcl-2 mean densitometric intensity / CA IX mean densitometric intensity / COX-2 mean densitometric intensity / Cited 2 mean densitometric intensity / Cytochrome C mean densitometric intensity / Dkk-4 mean densitometric intensity / FABP-1 mean densitometric intensity / HIF1a mean densitometric intensity / HIF2a mean densitometric intensity / HSP60 mean densitometric intensity / HSP70 mean densitometric intensity / IDO mean densitometric intensity / NFkB1 mean densitometric intensity / PON1 mean densitometric intensity / PON2 mean densitometric intensity / PON3 mean densitometric intensity / PP53 mean densitometric intensity / SIRT2 mean densitometric intensity / SOD2 mean densitometric intensity / Thioredoxin-1 mean densitometric intensity / p21/CIP1 mean densitometric intensity / p27 mean densitometric intensity / pHSP-27 mean densitometric intensity / pJNK mean densitometric intensity / pp38a mean densitometric intensity: 2-IB (30 ng/ml)
Description: (§1) In vitro hypoxia was induced in the cell cultures by using our recently described system with minor modifications (Huang et al., 2013b; Weber et al., 2015; Zitta et al., 2010). Enzyme stock solutions (100×) of catalase and glucose oxidase (both from Sigma-Aldrich) were prepared in cell culture medium (DMEM/F12, 1% FCS; final concentration: 120 U/ml and 2 U/ml respectively; Sigma-Aldrich) leading to a decrease of partial pressure of oxygen (pO2) below 10 mmHg within 5 minutes. Hypoxic conditions were confirmed by using a tissue oxygen pressure monitor (LICOX® CMP Oxygen Catheter; Integra, Plainsboro, USA). After 7 hours of hypoxia, the cells were washed twice with PBS (PAA) and fresh normoxic medium supplemented with solvent (citrate buffer 1%) or 2-IB (10, 30, 50, 100 and 300 ng/mL) was added to the cells. Investigations of cell damage, metabolic activity, ROS, hydrogen peroxide, nitrite/nitrate production, erkl/2, akt and stat5 phosphorylation as well as cell stress protein expression were performed with cell culture media or cell protein (FIG. 1).
Proteome profiling was performed using commercially available cell stress proteome profiler arrays (R&D Systems, Minneapolis, USA) and the manufacturer's protocol provided with the assay kit. Equal amounts (50 μg) of protein from each experiment (N=4) were pooled and applied to the respective array membrane. Expression levels of 26 cell stress associated proteins were evaluated by densitometric analyses of the arrays using the ImageJ 1.410 software (ImageJ, NIH, USA).

[3] = system: IMR-32 cells; experiment: LDH cytotoxicity assay, hypoxia-induced cell damage; assay type: cell-based, human
Description: as §1
The release of LDH from cultured cells into the medium was quantified by using a colorimetric cytotoxicity detection kit (Roche, Mannheim, Germany). Samples were prepared based on the manufacturer's protocol. Briefly, culture media were collected 24 hours after hypoxia and stored at −20° C. For evaluation of total LDH, cells were lysed with 2% TRITON® X-100 (Carl Roth, Karlsruhe, Germany) for 15 minutes at 37° C. LDH activity of the samples was measured in 96-well plates at 490 nm using an ELISA reader (Tecan, Crailsheim, Austria) in combination with the Magellan software v1.1.

[4] = 30 ng/ml 2-IB after the hypoxic insult, of 26 proteins

SMILES: N=C1N[C@H]2[C@H](CS[C@H]2CCCCC(=O)O)N1 [2-IB, 2-iminobiotin]
- mean AUC 0-4 hours on average ([1]; 0.6 mg/kg pulses, during the 24-hour dosing period): about 1305 ng·h/mL
- mean AUC 4 hours ([1]; after the first infusion): 1170 ng·h/mL
- mean AUC 4 hours ([1]; after the last infusion): 1441 ng·h/mL
- cell stress associated proteins down regulated after hypoxia [2, 4]: 3/26
- cell stress associated proteins unchanged after hypoxia [2, 4]: 4/26
- cell stress associated proteins up regulated after hypoxia [2, 4]: 19/26
- investigated stress proteins up regulated ([2]; 30 ng/ml 2-IB for 4 hours post hypoxia): 73%
- ADAMTS1 mean densitometric intensity ([2]; Hypoxia): 9.23
- Bcl-2 mean densitometric intensity ([2]; Hypoxia): 42.62
- CA IX mean densitometric intensity ([2]; Hypoxia): 23.02
- COX-2 mean densitometric intensity ([2]; Hypoxia): 13.79
- Cited 2 mean densitometric intensity ([2]; Hypoxia): 67.91
- Cytochrome C mean densitometric intensity ([2]; Hypoxia): 108.04
- Dkk-4 mean densitometric intensity ([2]; Hypoxia): 3.47
- FABP-1 mean densitometric intensity ([2]; Hypoxia): 9.02
- HIF1a mean densitometric intensity ([2]; Hypoxia): 47.93
- HIF2a mean densitometric intensity ([2]; Hypoxia): 0.00
- HSP60 mean densitometric intensity ([2]; Hypoxia): 150.57
- HSP70 mean densitometric intensity ([2]; Hypoxia): 170.82
- IDO mean densitometric intensity ([2]; Hypoxia): 0.00
- NFkB1 mean densitometric intensity ([2]; Hypoxia): 8.63
- PON1 mean densitometric intensity ([2]; Hypoxia): 0.00
- PON2 mean densitometric intensity ([2]; Hypoxia): 20.16
- PON3 mean densitometric intensity ([2]; Hypoxia): 0.00
- PP53 mean densitometric intensity ([2]; Hypoxia): 11.92
- SIRT2 mean densitometric intensity ([2]; Hypoxia): 171.53
- SOD2 mean densitometric intensity ([2]; Hypoxia): 203.11
- Thioredoxin-1 mean densitometric intensity ([2]; Hypoxia): 147.57
- p21/CIP1 mean densitometric intensity ([2]; Hypoxia): 51.41
- p27 mean densitometric intensity ([2]; Hypoxia): 4.67
- pHSP-27 mean densitometric intensity ([2]; Hypoxia): 1.65
- pJNK mean densitometric intensity ([2]; Hypoxia): 48.63
- pp38a mean densitometric intensity ([2]; Hypoxia): 3.52
- ADAMTS1 mean densitometric intensity ([2]; Normoxia): 10.32
- Bcl-2 mean densitometric intensity ([2]; Normoxia): 32.27
- CA IX mean densitometric intensity ([2]; Normoxia): 0.00
- COX-2 mean densitometric intensity ([2]; Normoxia): 8.91
- Cited 2 mean densitometric intensity ([2]; Normoxia): 44.07
- Cytochrome C mean densitometric intensity ([2]; Normoxia): 84.87
- Dkk-4 mean densitometric intensity ([2]; Normoxia): 2.81
- FABP-1 mean densitometric intensity ([2]; Normoxia): 6.67
- HIF1a mean densitometric intensity ([2]; Normoxia): 62.15
- HIF2a mean densitometric intensity ([2]; Normoxia): 0.00
- HSP60 mean densitometric intensity ([2]; Normoxia): 121.73
- HSP70 mean densitometric intensity ([2]; Normoxia): 139.78
- IDO mean densitometric intensity ([2]; Normoxia): 0.00
- NFkB1 mean densitometric intensity ([2]; Normoxia): 6.09
- PON1 mean densitometric intensity ([2]; Normoxia): 0.00
- PON2 mean densitometric intensity ([2]; Normoxia): 8.83
- PON3 mean densitometric intensity ([2]; Normoxia): 0.00
- PP53 mean densitometric intensity ([2]; Normoxia): 8.64
- SIRT2 mean densitometric intensity ([2]; Normoxia): 148.80
- SOD2 mean densitometric intensity ([2]; Normoxia): 181.53
- Thioredoxin-1 mean densitometric intensity ([2]; Normoxia): 126.34
- p21/CIP1 mean densitometric intensity ([2]; Normoxia): 43.13
- p27 mean densitometric intensity ([2]; Normoxia): 4.51
- pHSP-27 mean densitometric intensity ([2]; Normoxia): 0.79
- pJNK mean densitometric intensity ([2]; Normoxia): 39.24
- pp38a mean densitometric intensity ([2]; Normoxia): 4.72
- LDH/total LDH ([3]; 30 ng/ml 2-IB, hypoxia): 0.13±0.02
- LDH/total LDH ([3]; 30 ng/ml 2-IB, normoxia): 0.11±0.03
- LDH/total LDH ([3]; 50 ng/ml 2-IB, hypoxia): 0.14±0.04
- LDH/total LDH ([3]; 50 ng/ml 2-IB, normoxia): 0.14±0.04
- LDH/total LDH ([3]; 100 ng/ml 2-IB, hypoxia): 0.15±0.03
- LDH/total LDH ([3]; 100 ng/ml 2-IB, normoxia): 0.10±0.02
- LDH/total LDH ([3]; 300 ng/ml 2-IB, hypoxia): 0.20±0.06
- LDH/total LDH ([3]; 300 ng/ml 2-IB, normoxia): 0.10±0.02
- reduction of hypoxia-induced cell damage, most effective concentrations ([3]; 10-300 ng/ml tested, P<0.05 vs. control): 30 and 50 ng/ml 2-IB were the most effective concentrations

— patent US10722496B2, “2-iminobiotin for use in the treatment of brain cell injury” (Neurophyxia B.V., priority 2015, dated 2020)
